Test results from patent US20260083131A1, “AN HERBICIDAL COMBINATION, COMPOSITION AND METHOD OF CONTROLLING WEEDS USING THE SAME” (priority 2022, published 2026).

Legend:
Borreria verticillata = assay: Greenhouse trial, post-emergence herbicidal activity on Borreria verticillata; type: in vivo
Method: (§1) The expected efficacy of a combination of L-glufosinate ammonium and the other herbicides was calculated using the well-established Colby method. Any difference between the observed and “expected” efficacy could be attributed to synergy between the two compounds.
(§2) In the Colby method, the expected (or predicted) response of a combination of herbicides is calculated by taking the product of the observed response for each individual component of the combination when applied alone, divided by 100, and subtracting this value from the sum of the observed response for each component when applied alone. An unexpected enhancement in efficacy of the combination is then determined by comparing the observed response of the combination to the expected (or predicted) response as calculated from the observed response of each individual component alone. If the observed response of the combination is greater than the expected (or predicted) response, or stated conversely, if the difference between the observed and expected response is greater than zero, then the combination is said to be synergistic or unexpectedly effective (Colby, S. R., Weeds, 1967(15), p. 20-22). The Colby method requires only a single dose of each herbicide applied alone and the mixture of both doses. The formula used to calculate the expected efficacy (EE) which was compared with the observed efficacy (OE) to determine the efficacy of the present disclosure is explained hereinbelow:
(§3) Methodology: Greenhouse trials were conducted to evaluate the efficacy of the combination comprising L-glufosinate ammonium and imidazolinone herbicides—imazethapyr, imazamox, imazapic and imazapic+imazapyr—on weeds Borreria verticilata, Eleusine indica, Brachiaria decumbens, Spermacoce latifolia and Glycine max.
(§4) The soil used was sandy clay loam—sand: 68.0%; silt: 8.0%; clay: 24.0%.
(§5) All treatments were in 3 replications per treatment with a spray volume of about 150 L/ha.
The percentage efficacy was calculated after 3, 7, 14, 21, 28 and 35 days of applications (DAA). The target weed was Borreria verticillata, and the concentration of the herbicide and the results are recorded in Table 1.
The percentage efficacy was calculated after 3 days of applications (DAA). The target weed was Borreria verticillata, and the concentration of the herbicide and the results are recorded in Table 2.
The percentage efficacy was calculated after 3, 7, 14, 21, 28 and 35 days of applications (DAA). The target weed was Borreria verticillata, and the concentration of the herbicide and the results are recorded Table 7.

weedy Eleusine indica = assay: Greenhouse trial, post-emergence herbicidal activity on Eleusine indica; type: in vivo; details: Table 4
Method: as §1, §2, §3, §4, §5
The percentage efficacy was calculated after 7, 14, 21, 28, 35 days of applications (DAA). The target weed was weedy Eleusine indica, and the concentration of the herbicide and the results are recorded in Table 4.

weedy Glycine max = assay: Greenhouse trial, post-emergence herbicidal activity on Glycine max; type: in vivo; details: Table 6
Method: as §1, §2, §3, §4, §5
The percentage efficacy was calculated after 14, 21, 28, 35 days of applications (DAA). The target weed was weedy Glycine max, and the concentration of the herbicide and the results are recorded in Table 6.

Spermacoce latifolia = assay: Greenhouse trial, post-emergence herbicidal activity on Spermacoce latifolia; type: in vivo; details: Table 5
Method: as §1, §2, §3, §4, §5
The percentage efficacy was calculated after 14, 21, 28, 35 days of applications (DAA). The target weed was Spermacoce latifolia, and the concentration of the herbicide and the results are recorded Table 5.

[1] = test system: weedy Brachiaria decumbens; assay: Greenhouse trial, post-emergence herbicidal activity on Brachiaria decumbens; type: in vivo; details: Table 3
Method: as §1, §2, §3, §4, §5
The percentage efficacy was calculated after 7, 14, 21, 28, 35 days of applications (DAA). The target weed was weedy Brachiaria decumbens, and the concentration of the herbicide and the results are recorded in Table 3.

[2] = test system: Viola arvensis, Bromus spp., Lolium spp., Agropyron repens and Urtica urens; details: reported by Hoechst et al., 1991; cited from earlier work

COCc1cnc(C2=NC(C)(C(C)C)C(=O)N2)c(C(=O)O)c1 (stereo not drawn) [Imazamox, imazamox]
Observed efficacy (%) of Imazamox (21 g a.i./ha) (Borreria verticillata; 3 DAA, 21 g a.i./ha, Table 2): 10%

CP(=O)(O)CC[C@H](N)C(=O)O.N [L-glufosinate ammonium, ammonium (2S)-2-amino-4-(methylphosphinato)butyric acid]
Observed efficacy (%) of L-glufosinate ammonium, (150 g a.i./ha) (weedy Eleusine indica; 7 DAA): 43.3%
Observed efficacy (%) of L-glufosinate ammonium, (150 g a.i./ha) (weedy Eleusine indica; 14 DAA): 41.3%
Observed efficacy (%) of L-glufosinate ammonium, (150 g a.i./ha) (weedy Eleusine indica; 21 DAA): 37.3%
Observed efficacy (%) of L-glufosinate ammonium, (150 g a.i./ha) (weedy Eleusine indica; 28 DAA): 28.3%
Observed efficacy (%) of L-glufosinate ammonium, (150 g a.i./ha) (weedy Eleusine indica; 35 DAA): 25.3%
Observed efficacy (%) of L-glufosinate ammonium, (150 g a.i./ha) (weedy Glycine max; 14 DAA): 60%
Observed efficacy (%) of L-glufosinate ammonium, (150 g a.i./ha) (weedy Glycine max; 21 DAA): 63.3%
Observed efficacy (%) of L-glufosinate ammonium, (150 g a.i./ha) (weedy Glycine max; 28 DAA): 63.3%
Observed efficacy (%) of L-glufosinate ammonium, (150 g a.i./ha) (weedy Glycine max; 35 DAA): 52.7%
Observed efficacy (%) of L-glufosinate ammonium, (150 g a.i./ha) (Spermacoce latifolia; 14 DAA): 56.7%
Observed efficacy (%) of L-glufosinate ammonium, (150 g a.i./ha) (Spermacoce latifolia; 21 DAA): 56.7%
Observed efficacy (%) of L-glufosinate ammonium, (150 g a.i./ha) (Spermacoce latifolia; 28 DAA): 58.3%
Observed efficacy (%) of L-glufosinate ammonium, (150 g a.i./ha) (Spermacoce latifolia; 35 DAA): 58.3%
Observed efficacy (%) of L-glufosinate ammonium, (150 g a.i./ha) ([1]; 7 DAA): 46%
Observed efficacy (%) of L-glufosinate ammonium, (150 g a.i./ha) ([1]; 14 DAA): 54.3%
Observed efficacy (%) of L-glufosinate ammonium, (150 g a.i./ha) ([1]; 21 DAA): 53.3%
Observed efficacy (%) of L-glufosinate ammonium, (150 g a.i./ha) ([1]; 28 DAA): 48.3%
Observed efficacy (%) of L-glufosinate ammonium, (150 g a.i./ha) ([1]; 35 DAA): 42%
Observed efficacy (%) of L-glufosinate ammonium (Glufosinate-P-ammonium) (150 g a.i./ha) (Borreria verticillata; 3 DAA, Table 1): 50%
Observed efficacy (%) of L-glufosinate ammonium (Glufosinate-P-ammonium) (150 g a.i./ha) (Borreria verticillata; 3 DAA, Table 2): 55%
Observed efficacy (%) of L-glufosinate ammonium (Glufosinate-P-ammonium) (150 g a.i./ha) (Borreria verticillata; 3 DAA, Table 7): 50%
Observed efficacy (%) of L-glufosinate ammonium (Glufosinate-P-ammonium) (150 g a.i./ha) (Borreria verticillata; 7 DAA, Table 1): 80%
Observed efficacy (%) of L-glufosinate ammonium (Glufosinate-P-ammonium) (150 g a.i./ha) (Borreria verticillata; 7 DAA, Table 7): 80%
Observed efficacy (%) of L-glufosinate ammonium (Glufosinate-P-ammonium) (150 g a.i./ha) (Borreria verticillata; 14 DAA, Table 1): 95%
Observed efficacy (%) of L-glufosinate ammonium (Glufosinate-P-ammonium) (150 g a.i./ha) (Borreria verticillata; 14 DAA, Table 7): 95%
Observed efficacy (%) of L-glufosinate ammonium (Glufosinate-P-ammonium) (150 g a.i./ha) (Borreria verticillata; 21 DAA, Table 1): 90%
Observed efficacy (%) of L-glufosinate ammonium (Glufosinate-P-ammonium) (150 g a.i./ha) (Borreria verticillata; 21 DAA, Table 7): 90%
Observed efficacy (%) of L-glufosinate ammonium (Glufosinate-P-ammonium) (150 g a.i./ha) (Borreria verticillata; 28 DAA, Table 1): 90%
Observed efficacy (%) of L-glufosinate ammonium (Glufosinate-P-ammonium) (150 g a.i./ha) (Borreria verticillata; 28 DAA, Table 7): 90%
Observed efficacy (%) of L-glufosinate ammonium (Glufosinate-P-ammonium) (150 g a.i./ha) (Borreria verticillata; 35 DAA, Table 1): 85%
Observed efficacy (%) of L-glufosinate ammonium (Glufosinate-P-ammonium) (150 g a.i./ha) (Borreria verticillata; 35 DAA, Table 7): 85%

CP(=O)(O)CCC(N)C(=O)O (racemic) [glufosinate, DL-homoalanin-4-yl(methyl)phosphinic acid]
control of weed species Viola arvensis, Bromus spp., Lolium spp., Agropyron repens and Urtica urens [2]: either not combated, or only weakly combated

Cc1cnc(C2=NC(=O)C(C)(C(C)C)N2)c(C(=O)O)c1 (stereo not drawn) [Imazapic, imazapic]
Observed efficacy (%) of Imazapic (59 g a.i./ha) (Borreria verticillata; 3 DAA, Table 1): 10%
Observed efficacy (%) of Imazapic (59 g a.i./ha) (Borreria verticillata; 7 DAA, Table 1): 20%
Observed efficacy (%) of Imazapic (59 g a.i./ha) (Borreria verticillata; 14 DAA, Table 1): 35%
Observed efficacy (%) of Imazapic (59 g a.i./ha) (Borreria verticillata; 21 DAA, Table 1): 30%
Observed efficacy (%) of Imazapic (59 g a.i./ha) (Borreria verticillata; 28 DAA, Table 1): 40%
Observed efficacy (%) of Imazapic (59 g a.i./ha) (Borreria verticillata; 35 DAA, Table 1): 60%

CCc1cnc(C2=NC(C)(C(C)C)C(=O)N2)c(C(=O)O)c1 (stereo not drawn) [Imazethapyr, imazethapyr]
Observed efficacy (%) of Imazethapyr, (75 g a.i./ha) (weedy Eleusine indica; 7 DAA): 8.3%
Observed efficacy (%) of Imazethapyr, (75 g a.i./ha) (weedy Eleusine indica; 14 DAA): 12%
Observed efficacy (%) of Imazethapyr, (75 g a.i./ha) (weedy Eleusine indica; 21 DAA): 12.7%
Observed efficacy (%) of Imazethapyr, (75 g a.i./ha) (weedy Eleusine indica; 28 DAA): 12.7%
Observed efficacy (%) of Imazethapyr, (75 g a.i./ha) (weedy Eleusine indica; 35 DAA): 10%
Observed efficacy (%) of Imazethapyr, (75 g a.i./ha) (weedy Glycine max; 14 DAA): 10%
Observed efficacy (%) of Imazethapyr, (75 g a.i./ha) (weedy Glycine max; 21 DAA): 20%
Observed efficacy (%) of Imazethapyr, (75 g a.i./ha) (weedy Glycine max; 28 DAA): 20%
Observed efficacy (%) of Imazethapyr, (75 g a.i./ha) (weedy Glycine max; 35 DAA): 15%
Observed efficacy (%) of Imazethapyr, (75 g a.i./ha) (Spermacoce latifolia; 14 DAA): 30%
Observed efficacy (%) of Imazethapyr, (75 g a.i./ha) (Spermacoce latifolia; 21 DAA): 36.7%
Observed efficacy (%) of Imazethapyr, (75 g a.i./ha) (Spermacoce latifolia; 28 DAA): 30%
Observed efficacy (%) of Imazethapyr, (75 g a.i./ha) (Spermacoce latifolia; 35 DAA): 26.7%
Observed efficacy (%) of Imazethapyr, (75 g a.i./ha) ([1]; 7 DAA): 10%
Observed efficacy (%) of Imazethapyr, (75 g a.i./ha) ([1]; 14 DAA): 10%
Observed efficacy (%) of Imazethapyr, (75 g a.i./ha) ([1]; 21 DAA): 15%
Observed efficacy (%) of Imazethapyr, (75 g a.i./ha) ([1]; 28 DAA): 10%
Observed efficacy (%) of Imazethapyr, (75 g a.i./ha) ([1]; 35 DAA): 5%
